In one data set the test system is SCC7 carcinoma. Briefly: Radiosensitizing efficacy in mice: tumor growth delay, SCC7 carcinoma. It counts as in vivo, B6 C3 F1 mice. Conditions: IP at maximum tolerated dose every 12 hours, 30 min before 2.5 Gray, 8 fractions. Here is the method:
Tumor growth delay was assessed in B6 C3 F1 mice implanted IM with 5×10^5 SCC7 carcinoma tumor cells. On Days 10 through 13 post tumor implantation, mice were treated every 12 hours with the maximum tolerated dose of test agent (determined from a 10-day multiple treatment schedule). Thirty minutes later, mice were irradiated at the tumor site with a 2.5 Gray dose of x-rays. Upon completion of this 8 fraction protocol, tumor growth was monitored daily.

A further data set deals with KHT fibrosarcoma. Briefly: Radiosensitizing efficacy in mice: excision assay, clonogenic survival of KHT fibrosarcomas. Conditions: 250 mg/kg IP, 30 min before 10 Gray whole body irradiation. It counts as in vivo, B6 C3 F1 mice. Here is the method: Clonogenic survival of KHT fibrosarcomas was determined in assays employing B6 C3 F1 mice. Tumors were implanted subcutaneously by trocar. Nine days postimplantation, when tumors ranged from 200 to 400 mg in size, mice were treated IP with a range of drug doses including the maximum tolerated dose of the test agent. Thirty minutes later mice received whole body irradiation at a dose of 10 Gray, delivered at a rate of 2 Gray/minute with a 320 kV x-ray machine. Twenty-four hours after treatment, animals were sacrificed, and tumors were excised. Tumors were enzymatically digested to give single cell suspensions prior to plating for cell survival by clonogenic assay.

The next data set deals with B6 C3 F1 mice. Briefly: Mouse Toxicity Studies (14-day lethality, LD10 by probit analysis). It counts as in vivo. On the procedure:
B6 C3 F1 mice were treated with varying doses of test agent by either intraperitoneal, intravenous, or oral administration. […] The maximum tolerated dose was established as the dose equal to or less than the LD10 as determined from a probit analysis.

A short description of data set [1]: Emesis Studies in beagle dogs. The data set is classed as in vivo. Conditions: dog, in vivo; IV, 10-minute infusion, 6-hour postdosing scoring; threshold dose at which 50% of animals exhibited emetic response; read-out: Emesis (Dogs) ED50. On the procedure:
(§1) Beagle dogs (approximately 10 kg body weight) were treated intravenously with a 10-minute infusion of 20 mL of the test compound prepared in sodium lactate buffer, pH 4.0. Dogs were scored over a 6-hour postdosing period for both the number of emetic episodes and the relative volume. Antiemetic therapy consisted of a 5-minute infusion of ondansetron, administered at a dose of 0.3 mg/kg 30 minutes prior to treatment with the nitroimidazole.

The test system of the next data set is beagle dogs. Briefly: Emesis Studies in beagle dogs. The settings on record: dogs, IV; result in words. It counts as in vivo. On the procedure:
as §1

Turning to `Br.O=[N+]([O-])c1nccn1C[C@@H](O)CNCCBr` [(S), (S)-(-)-α-[[(2-Bromoethyl)amino]methyl]-2-nitro-1H-imidazole-1-ethanol, monohydrobromide], the “Growth Delay Fold Enhancement” value in the data set on SCC7 carcinoma is reported as 1.8 Fold. The “Excision (250 mg/kg), % control” value in the data set on KHT fibrosarcoma was 11 % control. Moreover, the LD10 turned out to be 850 mg/kg with B6 C3 F1 mice (IP), 900 mg/kg in the data set on B6 C3 F1 mice (IV) and 1100 mg/kg in the data set on B6 C3 F1 mice (PO). Besides, the TD50 at 6 h in data set [1] is 4 mg/kg.

As for `Br.O=[N+]([O-])c1nccn1C[C@H](O)CNCCBr` [(R), (R)-(+)-α-[[(2-Bromoethyl)amino]methyl]-2-nitro-1H-imidazole-1-ethanol, monohydrobromide], the “Growth Delay Fold Enhancement” value in the data set with SCC7 carcinoma stood at 2.1 Fold. For the same molecule, the “Excision (250 mg/kg), % control” value with KHT fibrosarcoma worked out at 11 % control. For the same molecule, the LD10 with B6 C3 F1 mice (IP) is reported as 850 mg/kg; in the data set on B6 C3 F1 mice (IV) it was 900 mg/kg; with B6 C3 F1 mice (PO), 1100 mg/kg. In addition, in the data set with beagle dogs, the “Emesis relative to (S) isomer or racemic mixture” value is “significantly less emesis than the (S) isomer or the mixture”. The TD50 at 6 h in data set [1] was found to be 12 mg/kg.

The values are drawn from patent publication US5659048A, “Chiral [[(2-bromoethyl)-amino]methyl]-2-nitro-1H-imidazol-1-ethanol and related compounds” (priority 1995, dated 1997).
